Assay [1] concerns the target T1, mu receptor (Rattus norvegicus, UniProt P33535).
T1 construct: The brain tissue, rat whole brain minus cerebellum for mu was homogenized; from tissue; host or cells: brain minus cerebellum of male Sprague Dawley rats, homogenate fraction
The experiment in a line: Naloxone [3H] opioid receptor binding assay (mu receptor). More on the design: species or system rat (male Sprague Dawley). Particulars: 20 min; for inhibition at 0.01 µM: pH 7.4, read-out: % displacement at 10 nM; for inhibition at 0.1 µM: pH 7.4, read-out: % displacement at 100 nM; for pKi: rat whole brain minus cerebellum, [3H]naloxone 0.5 nM, pH 7.4, 37° C., read-out: Ki.

In assay [2] the target is T2, opioid receptor (Mus musculus, UniProt P42866).
T2 construct: Five CF-1 male mice (Charles River, Portage, MI); from tissue; host or cells: living CF-1 male mice (whole animal, endogenous receptor)
T2 sequence (P42866 whole entry): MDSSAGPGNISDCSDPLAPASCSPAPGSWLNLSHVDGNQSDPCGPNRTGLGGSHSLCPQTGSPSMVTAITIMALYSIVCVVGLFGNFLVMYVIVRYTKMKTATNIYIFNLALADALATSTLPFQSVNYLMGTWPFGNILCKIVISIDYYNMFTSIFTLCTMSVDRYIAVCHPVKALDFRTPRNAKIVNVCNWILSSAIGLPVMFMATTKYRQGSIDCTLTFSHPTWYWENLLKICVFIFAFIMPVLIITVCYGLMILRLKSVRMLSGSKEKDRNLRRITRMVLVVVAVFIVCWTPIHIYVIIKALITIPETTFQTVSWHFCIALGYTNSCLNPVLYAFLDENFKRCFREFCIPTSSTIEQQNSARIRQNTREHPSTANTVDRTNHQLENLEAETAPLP
The experiment in a line: in vivo. More on the design: species or system CF-1 male mice. Conditions: sc; mouse writhing test; […]; s.c. 20 min before acetic acid; read-out: AD50 (the source's name).

Assay [3] relates to peripheral opioid receptors. The experiment in a line: mouse diarrhea test: precipitated diarrhea in morphine-maintained mice (peripheral opioid activity). The class given is in vivo.
The target of assay [4] is peripheral opioid receptors (Mus musculus, UniProt P42866). Described as above. The class given is in vivo. Particulars: mouse diarrhea test; morphine-maintained mice; subcutaneous or oral; 30 min observation.
Sequence of peripheral opioid receptors (Mus musculus, UniProt P42866) (P42866 whole entry): as above
Where [5] appears, read: AD50 mouse writhing / ED50 mouse diarrhea, higher = greater relative peripheral antagonism.

The record followed here is patent US5159081A, “Intermediates of peripherally selective N-carbonyl-3,4,4-trisubstituted piperidine opioid antagonists” (Eli Lilly and Company, priority 1991, dated 1992).

pKi: −log10 of the molar value. Structures can show the parent of a compound that is named as a salt.

T1 sequence (P33535 whole entry): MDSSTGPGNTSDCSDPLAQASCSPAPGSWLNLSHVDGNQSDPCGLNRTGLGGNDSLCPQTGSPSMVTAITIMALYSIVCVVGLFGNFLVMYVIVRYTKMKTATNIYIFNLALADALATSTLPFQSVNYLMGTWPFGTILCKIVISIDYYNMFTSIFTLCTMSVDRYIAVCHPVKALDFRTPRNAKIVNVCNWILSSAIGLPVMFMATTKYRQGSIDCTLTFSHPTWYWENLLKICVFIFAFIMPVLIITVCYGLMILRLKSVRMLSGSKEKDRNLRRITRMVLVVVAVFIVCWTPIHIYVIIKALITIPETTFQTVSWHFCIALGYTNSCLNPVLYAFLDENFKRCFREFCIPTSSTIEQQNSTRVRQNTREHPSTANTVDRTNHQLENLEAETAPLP

As to `C[C@H]1CN(CC(Cc2ccccc2)NC(=O)CCCC(=O)O)CC[C@@]1(C)c1cccc(O)c1` (relative stereo) [Example 15, Trans-5-((2-(4-(3-hydroxyphenyl)-3,4-dimethyl-1-piperidinyl)-1-(D-(phenylmethyl)ethyl)amino))-5-oxopentanoic acid monohydrate], in assay [1], the inhibition at 0.01 µM was 80%, the inhibition at 0.1 µM is 99% and the pKi was 8.53. Besides, the ED50 in assay [2] came to 1.39 mg/kg. Besides, in assay [3] (mouse, in vivo), the “Ratio (ratio of AD50 to ED50)” value stood at 50. For the same compound, the ED50 in assay [4] is given as 0.028 mg/kg.

With `C[C@H]1CN(CCC(NC(=O)CCCC(=O)O)C2CCCCC2)CC[C@@]1(C)c1cccc(O)c1` (stereo in doubt) [Example 5, 5-((3-(trans-4-(3-hydroxyphenyl)-3,4-dimethyl-1-piperidinyl)-1-cyclohexylpropyl)amino)-5-oxo-pentanoic acid monohydrochloride monohydrate], in assay [1], the inhibition at 0.01 µM was 100%, the inhibition at 0.1 µM was found to be 100% and the pKi is 9.52. Moreover, the ED50 in assay [2] is more than 20 mg/kg. Further, the “Ratio (ratio of AD50 to ED50)” value in assay [3] (setting [5]) was more than 1666.

For the compound `CC(=O)NC(CCN1CC[C@@](C)(c2cccc(O)c2)[C@@H](C)C1)c1ccccc1` (stereo in doubt) [Example 6, N-(3-(trans-4-(3-hydroxyphenyl)-3,4-dimethyl-1-piperidinyl)-1-phenylpropyl)acetamide], in assay [1], the inhibition at 0.01 µM stood at 82%, the inhibition at 0.1 µM worked out at 94% and the pKi is 8.19. Also, the ED50 in assay [2] was 30 mg/kg. The “Ratio (ratio of AD50 to ED50)” value in assay [3] (setting [5]) was 428.

`C[C@H]1CN(CCC(CC2CCCCC2)NC(=O)CCCC(=O)O)CC[C@@]1(C)c1cccc(O)c1` (stereo in doubt) [Example 7, 5-((1-(cyclohexylmethyl)-3-(trans-4-(3-hydroxyphenyl)-3,4-dimethyl-1-piperidinyl)propyl)amino)-5-oxopentanoic acid monohydrochloride monohydrate]: in assay [1], the inhibition at 0.01 µM stood at 99%, the inhibition at 0.1 µM came out at 100% and the pKi is 9.20. For the same compound, in assay [2], the ED50 was found to be 8.62 mg/kg. Moreover, the “Ratio (ratio of AD50 to ED50)” value in assay [3] (setting [5]) was 19.

Turning to `C[C@H]1CN(CC(Cc2ccccc2)NC(=O)CCC(=O)O)CC[C@@]1(C)c1cccc(O)c1` (stereo partly drawn) [Example 14], in assay [1], the inhibition at 0.01 µM came to 20%, the inhibition at 0.1 µM stood at 64% and the pKi was 7.49. Moreover, in assay [2], the ED50 came to 21 mg/kg. For the same compound, in assay [3] (setting [5]), the “Ratio (ratio of AD50 to ED50)” value was 656.

Turning to `COC(=O)[C@H](Cc1ccccc1)NC(=O)CCC(=O)N(CCN1CCC(C)(c2cccc(O)c2)C(C)C1)C1CCCCC1` (stereo partly drawn) [Example 41, 2-((1,4-dioxo-4-(cyclohexyl-(2-(trans-4-(3-hydroxyphenyl)-3,4-dimethyl-1-piperidinyl)ethyl)amino)butyl)-amino)-3-phenylpropanoic acid, methyl ester], in assay [1], the inhibition at 0.01 µM came out at 87%, the inhibition at 0.1 µM turned out to be 99% and the pKi was 8.61. For the same compound, the ED50 in assay [2] is 32 mg/kg. Moreover, in assay [3] (setting [5]), the “Ratio (ratio of AD50 to ED50)” value is 74.

For the compound `COC(=O)CCCC(=O)N[C@@H](CC1CCCCC1)CN1CC[C@](C)(c2cccc(O)c2)[C@H](C)C1` [Example 49], in assay [1], the inhibition at 0.01 µM was found to be 83%, the inhibition at 0.1 µM came out at 97% and the pKi was 8.09. In addition, the ED50 in assay [2] was 9.9 mg/kg. In assay [4], this compound came in with an ED50 of more than 10 mg/kg.

What is called pKi is the negative decadic logarithm of the Ki, by convention in mol/L.
